Results: the supplement of paper PMC10307832

Experiments:
Experiment in all cases: relative viability (nuclei count vs DMSO), 5 days (fraction); higher = more cells survive
[1] = compound: C1=CC(=CC=C1C2=CC(=C(S2)NC(=O)N)C(=O)N)F [TPCA-1] + C[C@@H](Oc1cc(-c2cnn(C3CCNCC3)c2)cnc1N)c1c(Cl)ccc(F)c1Cl [Crizotinib] (partner 1 µM)
Outline: (§1)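 Lung cancer cell lines in 1536-well plates got either a single drug or a fixed anchor-drug dose together with five library-drug doses (not always all listed) in √10 steps, by pin tool, on the day after seeding. Nuclei were counted after 5 days, and relative viability is the treated-to-vehicle ratio of nuclei counts. Values are medians of duplicate plates.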

[2] = compound: C1=CC(=CC=C1C2=CC(=C(S2)NC(=O)N)C(=O)N)F [TPCA-1] + O=C(CCCCCCC(=O)Nc1ccccc1)NO [Vorinostat] (partner 1 µM)
Outline: as §1

[3] = compound: C[C@]12O[C@H](C[C@]1(O)CO)n1c3ccccc3c3c4c(c5c6ccccc6n2c5c31)CNC4=O [Lestaurtinib] + O=C(CCCCCCC(=O)Nc1ccccc1)NO [Vorinostat] (partner 1 µM)
Outline: as §1

[4] = compound: C1=CC(=CC=C1C2=CC(=C(S2)NC(=O)N)C(=O)N)F [TPCA-1] + Nc1ncn([C@H]2C[C@H](O)[C@@H](CO)O2)c(=O)n1 [Decitabine] (partner 2 µM)
Outline: as §1

Row | Cell Line | relative viability ([1]; first compound 0.04 µM) | relative viability ([1]; first compound 0.1265 µM) | relative viability ([1]; first compound 0.4 µM) | relative viability ([1]; first compound 1.265 µM) | relative viability ([1]; first compound 4 µM) | relative viability ([2]; first compound 0.04 µM) | relative viability ([2]; first compound 0.1265 µM) | relative viability ([2]; first compound 0.4 µM) | relative viability ([2]; first compound 1.265 µM) | relative viability ([2]; first compound 4 µM) | relative viability ([3]; first compound 0.005 µM) | relative viability ([3]; first compound 0.01581 µM) | relative viability ([3]; first compound 0.05 µM) | relative viability ([3]; first compound 0.1581 µM) | relative viability ([3]; first compound 0.5 µM) | relative viability ([4]; first compound 0.04 µM) | relative viability ([4]; first compound 0.1265 µM) | relative viability ([4]; first compound 0.4 µM) | relative viability ([4]; first compound 1.265 µM) | relative viability ([4]; first compound 4 µM)
1 | NCI-H596 | 1.01 | 1.1 | 0.522 | 0.972 | 1.01 | 0.64 | 0.613 | 0.696 | 0.668 | 0.616 | 0.539 | 0.746 | 0.718 | 0.645 | 0.795 | 1.02 | 0.997 | 1.07 | 1.1 | 1.07
2 | NCI-H460 | 0.911 | 0.919 | 0.889 | 0.883 | 0.298 | 0.878 | 0.686 |  | 0.682 | 0.563 | 1 | 1.01 | 0.653 | 1.1 | 0.503 | 0.521 | 0.461 |  | 0.453 | 0.476
3 | HCC-366 | 0.562 | 0.644 | 0.588 | 0.472 | 0.258 |  | 0.288 | 0.359 | 0.285 | 0.0534 | 0.351 | 0.469 | 0.335 | 0.317 | 0.19 |  | 0.285 | 0.361 | 0.271 | 0.322
4 | NCI-H2085 | 0.921 | 0.793 | 0.872 | 0.765 | 0.78 |  | 0.803 | 0.803 | 0.781 | 0.514 | 0.741 | 0.812 | 0.869 | 0.751 | 0.661 |  | 0.531 | 0.618 | 0.579 | 0.665
5 | PC-14 | 0.818 | 0.864 | 0.891 | 0.832 | 0.615 | 0.838 | 0.802 | 0.802 | 0.639 | 0.448 | 0.718 | 0.558 | 0.509 | 0.324 | 0.0543 | 0.265 | 0.24 | 0.231 | 0.255 | 0.323
